This note sets out measurements from PubChem BioAssay (NCI).

Test systems include SF-268 CNS; HOP-62 NSCLC; SK-MEL-28 melanoma; DU-145 prostate; UACC-62 melanoma; TK-10 renal; IGROV1 ovarian; M14 melanoma; NCI-H460 lung; MDA-N.
Common to all, as to test: NCI tumour cell line growth inhibition, 48 h

The structures appear in SMILES notation.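 Growth conditions: 96-well plates. Treatment: test compound, 48 hours, 5 concentrations. Analysis: linear interpolation between bracketing concentrations; unreached endpoints set to highest concentration. TGI: total growth inhibition.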

Consider `CC(C)C1=CC23CCC4C(C)(C(=O)O)CCCC4(C)C2CC1C(C(=O)O)C3C(=O)O` (centres undefined), for which the TGI with SF-268 CNS, in the test with HOP-62 NSCLC, in the test with SK-MEL-28 melanoma, with DU-145 prostate, in the test on UACC-62 melanoma and in the test with TK-10 renal was greater than 100 µM in each case. Also, the TGI in the test on IGROV1 ovarian, with M14 melanoma and with NCI-H460 lung was greater than 100 µM in each case.

On to `COc1ccc2c(c1)-c1oc3ccccc3c(=O)c1CO2`, for which the TGI in the test with SF-268 CNS is greater than 100 µM; with HOP-62 NSCLC, greater than 100 µM; in the test with DU-145 prostate, greater than 100 µM; in the test on MDA-N it was 78.1 µM; in the test with UACC-62 melanoma, greater than 100 µM; with TK-10 renal, greater than 100 µM. In addition, the TGI with IGROV1 ovarian and in the test with M14 melanoma was greater than 100 µM throughout.

With `COc1cc(CNc2nc3cc(C(F)(F)F)ccc3nc2C)cc(OC)c1OC`, the TGI in the test with SF-268 CNS was greater than 100 µM; in the test on HOP-62 NSCLC it was 71.3 µM; in the test with SK-MEL-28 melanoma, 65 µM; in the test with DU-145 prostate, greater than 100 µM; with MDA-N, 33.2 µM; with TK-10 renal it was 42.6 µM. Further, the TGI in the test on IGROV1 ovarian turned out to be 33.3 µM; with M14 melanoma, 30.8 µM; with NCI-H460 lung, 36 µM.

`COC(=O)CCN(CCC(=O)OC)C1CC1`: the TGI with SF-268 CNS, with HOP-62 NSCLC, in the test with SK-MEL-28 melanoma, in the test on DU-145 prostate, with UACC-62 melanoma and in the test with TK-10 renal was greater than 100 µM in each case. The TGI with IGROV1 ovarian, in the test on M14 melanoma and with NCI-H460 lung was greater than 100 µM each time.

For `O=C(O)/C=C/C(=O)O`, the TGI in the test with SF-268 CNS, in the test on HOP-62 NSCLC, in the test on SK-MEL-28 melanoma, in the test on DU-145 prostate, in the test on MDA-N and in the test on TK-10 renal was greater than 100 µM in each case. The TGI in the test with IGROV1 ovarian, with M14 melanoma and in the test with NCI-H460 lung was greater than 100 µM each time.

For the compound `N#Cc1nc(/C=C/c2ccccc2)oc1N`, the TGI in the test with SF-268 CNS, with HOP-62 NSCLC, in the test on SK-MEL-28 melanoma, in the test on DU-145 prostate, in the test on MDA-N and with TK-10 renal was greater than 100 µM throughout. Besides, the TGI in the test on IGROV1 ovarian, in the test with M14 melanoma and in the test with NCI-H460 lung was greater than 100 µM each time.

Turning to `OCCO[P+]1(OCCO)n2c3ccc2C(c2ccccc2)=C2C=CC(=N2)C(c2ccccc2)=c2ccc(n21)=C(c1ccccc1)C1=NC(=C3c2ccccc2)C=C1`, the TGI stood at 2.15 µM with SF-268 CNS; 1.72 µM in the test with HOP-62 NSCLC; 0.466 µM with SK-MEL-28 melanoma; 1.74 µM with DU-145 prostate; 0.092 µM in the test on MDA-N; 1.5 µM with TK-10 renal. The TGI in the test on M14 melanoma amounted to 0.278 µM; with NCI-H460 lung, 1.04 µM.

Consider `CC(=N\N=C\c1ccccn1)/C(C)=N/N=C(C)/C(C)=N/N=C(C)/C(C)=N/N=C/c1ccccn1`, for which the TGI in the test on SF-268 CNS, in the test with HOP-62 NSCLC, with SK-MEL-28 melanoma, in the test with DU-145 prostate, with MDA-N and in the test on TK-10 renal was greater than 100 µM in each case. Also, the TGI in the test with IGROV1 ovarian, in the test with M14 melanoma and in the test on NCI-H460 lung was greater than 100 µM each time.

For the compound `O=c1[nH]c2ccccc2c2oc(-c3ccccc3)nc12`, the TGI with SF-268 CNS was 71.3 µM; in the test with HOP-62 NSCLC, 39 µM; with MDA-N, 46.6 µM; in the test on UACC-62 melanoma, greater than 100 µM; with TK-10 renal, greater than 100 µM; in the test on IGROV1 ovarian, greater than 100 µM. Besides, the TGI with M14 melanoma and with NCI-H460 lung was greater than 100 µM in each case.

Take `CCOC(=O)C(C)c1nc2cc(N3CCN(C)CC3)c(F)cc2[nH]c1=O` (centres undefined): the TGI in the test with SF-268 CNS, with HOP-62 NSCLC, in the test with SK-MEL-28 melanoma, with DU-145 prostate, in the test with MDA-N and in the test with UACC-62 melanoma was greater than 100 µM each time. Also, the TGI in the test with IGROV1 ovarian, in the test with M14 melanoma and in the test on NCI-H460 lung was greater than 100 µM each time.

Consider `O=C1/C(=C/c2ccco2)NC(=S)N1CN1CCOCC1`, for which the TGI with SF-268 CNS, with HOP-62 NSCLC, in the test with SK-MEL-28 melanoma, with DU-145 prostate, with MDA-N and in the test with UACC-62 melanoma was greater than 100 µM each time. Further, the TGI in the test with TK-10 renal, with IGROV1 ovarian and with M14 melanoma was greater than 100 µM each time.

As for `C#CCOC(=O)C(N)CCCN=C(N)N` (centres undefined), the TGI in the test on SF-268 CNS, with HOP-62 NSCLC, in the test on SK-MEL-28 melanoma, with DU-145 prostate, in the test on MDA-N and with TK-10 renal was greater than 100 µM in each case. The TGI in the test on IGROV1 ovarian, in the test with M14 melanoma and with NCI-H460 lung was greater than 100 µM throughout.

`N#Cc1c(N2CCN(c3ccc([N+](=O)[O-])cc3)CC2)[n+](=O)c2ccc(Cl)cc2n1[O-]`: the TGI is 10.9 µM with SF-268 CNS; greater than 39.2 µM with SK-MEL-28 melanoma; 6.7 µM with DU-145 prostate; greater than 26.1 µM with MDA-N; 8.86 µM in the test with TK-10 renal; 2.01 µM in the test with IGROV1 ovarian. Moreover, the TGI in the test on M14 melanoma is greater than 23.4 µM; in the test on NCI-H460 lung it was 3.7 µM.

On to `Cc1c(F)c(N)c2c(=O)cc(-c3ccc(NC(=O)C(N)CCCN=C(N)N)c(F)c3)oc2c1F` (centres undefined), for which the TGI in the test on SF-268 CNS is greater than 100 µM; in the test with HOP-62 NSCLC it was 99.6 µM; with SK-MEL-28 melanoma it was 63.6 µM; in the test on DU-145 prostate, greater than 78.9 µM; in the test on MDA-N, greater than 100 µM; with TK-10 renal, 30.5 µM. In addition, the TGI with IGROV1 ovarian was 10.8 µM; in the test on M14 melanoma, 97.1 µM; in the test on NCI-H460 lung, greater than 64.9 µM.

Consider `Cn1ccc(C(=O)NCCCCCNC(=O)c2ccn(C)c(=O)c2O)c(O)c1=O`, for which the TGI in the test with SF-268 CNS, in the test on SK-MEL-28 melanoma, in the test with DU-145 prostate, with MDA-N, with UACC-62 melanoma and with TK-10 renal was greater than 100 µM each time. In the test with NCI-H460 lung, this compound gave a TGI greater than 100 µM.
